Key:
Format in all cases: cell-based, human
[1] = test system: UCCs; test: Western blot of acetylated α-tubulin and histones H3/H4; details: 48 h; 19i 1 or 2 μM, SAHA 2.5 μM
Method: Total protein extraction, purification of histones, and Western blot analysis were performed as previously described. Briefly, cells were incubated for 30 min on ice in RIPA-buffer (150 mM NaCl, 1% Triton X-100, 0.5% desoxycholate, 1% Nonidet P-40, 0.1% SDS, 1 mM EDTA, 50 mM TRIS (pH 7.6)) containing 10 μl/ml protease inhibitor cocktail (#P-8340, Sigma Aldrich, St. Louis, MO). Histones were extracted for detection of histone H3 and H4 acetylation by a modified published protocol employing sulfuric acid extraction and TCA-precipitation. Concentrations of total protein and histones were determined by BCA protein assay (Thermo Fisher Scientific, Carlsbad, CA). Subsequently, total cell proteins (15 μg) or extracted histones (2 μg) were separated by SDS-PAGE (total proteins 10–12% gels, histones 15% gels), transferred to PVDF membranes (Merck Millipore, Berlin, Germany), and were incubated with primary antibodies (at RT for 1 h or 4 °C overnight, see Additional file 3: Table S2) following blocking with 5% non-fat milk or BSA (bovine serum albumin) in TBST (150 mM NaCl, 10 mM TRIS, pH 7.4 and 0.1% Tween-20). For signal detection, membranes were incubated with a suitable horseradish peroxidase-conjugated secondary antibody (see Additional file 2: Table S1) at RT for 1 h and signals were visualized by SuperSignal™ West Femto (Thermo Fisher Scientific, Carlsbad, CA) and WesternBright Quantum kit (Biozym, Hessisch Oldendorf, Germany).

[2] = test system: 639-V; test: High-content analysis-based fluorescent live/dead assay; details: HCA, 72 h
Method: (§1) Live and dead cells were assayed by high-content analysis (HCA). […] After 72 h of treatment, cells were stained with a mixture of Hoechst 33342 (Sigma Aldrich, St. Louis, MO), calcein AM (Merck Millipore, Germany), and propidium iodide (Santa Cruz Biotechnology, Heidelberg) for cell nuclei, live and dead cells. The staining solution was replaced by PBS after 20 min. Images were acquired using ArrayScan XTI Live High Content Platform (Thermo Fisher Scientific Inc., USA) using excitation filters of 386, 485, and 560 nm for Hoechst 33342, calcein AM, and propidium iodide, respectively. The results were analyzed using HCS Studio Cellomics Scan (Thermo Fisher Scientific Inc., USA).

[3] = test system: VM-CUB1; test: as above; details: VMCub1, HCA, 72 h
Method: as §1

[4] = test system: UM-UC-3; test: as above; details: UM-UC-3, HCA, 72 h
Method: as §1

[5] = test system: HBLAK; test: as above; details: HCA, 72 h
Method: as §1

[6] = test system: 639-V; test: MTT viability assay (CC50)
Method: (§2) Further experiments were performed in VM-CUB1 and UM-UC-3 cells overexpressing HDAC4 (see below). Standard UCCs were obtained from the DSMZ (Braunschweig, Germany) and Dr. H.B. Grossmann HB (Houston, USA). For comparison, we investigated the spontaneously immortalized normal human bladder cell line HBLAK (provided by CELLnTEC, Bern, Switzerland) and the immortalized human embryonic kidney cell line HEK-293 (provided by Dr. V. Kolb-Bachofen, Duesseldorf, Germany). Cells were cultured and treated in DMEM GlutaMAX-I (Gibco, Darmstadt, Germany; UCCs and HEK-293) supplemented with 10% fetal calf serum (Biochrom, Berlin, Germany), except for HBLAK cultured in CnT-Prime Epithelial Culture Medium (CELLnTEC, Bern, Switzerland; HBLAK), at 37 °C and 5% CO2. STR (short tandem repeat) profiling via DNA fingerprint analysis was performed for all cell lines. Primary cultures of normal urothelial cells (UP) were established from healthy ureters removed during tumor nephrectomy and cultured as described. These cultures were used with informed consent of the patients and approval by the Ethics Committee of the Medical Faculty of the Heinrich-Heine-University, study number 1788. All inhibitors were dissolved in DMSO and stored as 10 mM stocks. […] The pan-HDACi inhibitor SAHA previously studied in detail was used for comparison. Solvent control cells were treated with equal amounts of DMSO.
(§3) For the determination of cellular mean cytotoxic concentration (CC50), UCCs, non-malignant control cells, and HDAC4-overexpressing clones were seeded in a 96-well format and treated once with a range of defined concentrations of the HDAC inhibitors. After 72 h, viability was quantified by NAD(P)H-dependent 3-(4,5-dimethylthiazol-2-yl)-2,5-diphenyltetrazolium bromide dye reduction assay (MTT, Sigma Aldrich, St. Louis, MO). CC50 values were estimated from three independent experiments by non-linear regression analysis (four-parameter logistic equation) using Prism 4.0 (Graph Pad) or Origin 8.0 (Origin Lab, Northhampton, GB). For time-dependent proliferation experiments, viability of untreated or inhibitor-treated cells was measured after 24, 48, and 72 h.

[7] = test system: VM-CUB1; test: MTT viability assay (CC50)
Method: as §2, §3

[8] = test system: UM-UC-3; test: MTT viability assay (CC50); details: UM-UC-3, MTT
Method: as §2, §3

[9] = test system: HBLAK; test: MTT viability assay (CC50); details: 72 h of incubation
Method: as §2, §3

[10] = test system: UC cell lines (VM-CUB1, UM-UC-3, 639-V); test: MTT viability assay, UC cell lines taken together; details: MTT and HCA live/dead assays
Method: Further experiments were performed in VM-CUB1 and UM-UC-3 cells overexpressing HDAC4 (see below). Standard UCCs were obtained from the DSMZ (Braunschweig, Germany) and Dr. H.B. Grossmann HB (Houston, USA). For comparison, we investigated the spontaneously immortalized normal human bladder cell line HBLAK (provided by CELLnTEC, Bern, Switzerland) and the immortalized human embryonic kidney cell line HEK-293 (provided by Dr. V. Kolb-Bachofen, Duesseldorf, Germany). Cells were cultured and treated in DMEM GlutaMAX-I (Gibco, Darmstadt, Germany; UCCs and HEK-293) supplemented with 10% fetal calf serum (Biochrom, Berlin, Germany), except for HBLAK cultured in CnT-Prime Epithelial Culture Medium (CELLnTEC, Bern, Switzerland; HBLAK), at 37 °C and 5% CO2. […]
as §3, with “CC50 values were estimated from three independent experiments by non-linear regression analysis (four-parameter logistic equation) using Prism 4.0 (Graph Pad) or Origin 8.0 (Origin Lab, Northhampton, GB).” left out

Row | SMILES | acetylation of α-tubulin [1] | CC50 [2] | CC50 [3] | CC50 [4] | CC50 [5] | CC50 ([6]; 24 h) | CC50 ([6]; 48 h) | CC50 ([6]; 72 h of incubation) | CC50 ([7]; VM-CUB1, MTT, 72 h of incubation) | CC50 ([7]; VMCub1, MTT, 24 h) | CC50 ([7]; VMCub1, MTT, 48 h) | CC50 ([8]; 24 h) | CC50 ([8]; 48 h) | CC50 ([8]; 72 h of incubation) | CC50 [9] | concentrations effective on / impeding proliferation of UC cell lines [10]
1 | O=C(CCCCCCC(=O)Nc1ccccc1)NO [SAHA, suberoylanilide hydroxamic acid, reference compound] | strongly induced | – | – | – | – | – | – | – | – | – | – | – | – | – | – | –
2 | O=C(NCC1(c2nc(-c3ccccc3)cs2)CCOCC1)c1cccc(-c2noc(C(F)(F)F)n2)c1 [TMP269] | – | 16.5 µM | 20.1 µM | 14.6 µM | 10.6 µM | 96.1 µM | 65.8 µM | 39.4 µM | 45.9 µM | 115 µM | 115 µM | 110 µM | 73.8 µM | 32.3 µM | 48.7 µM | > 10 µM

— publication PMC6069857, “Effects of novel HDAC inhibitors on urothelial carcinoma cells” (Clinical Epigenetics, 2018)
